Test results reported in patent US8603528B2, “Compositions and method for the reduction of post-operative pain” (ABYRX, Inc., priority 2004, dated 2013).
“Also recorded” adds a separate entry of the source.

Assay: Evaluation of elution rates of analgesic from a 0.5 gm composition button in phosphate buffer, HPLC-UV
Type: physicochemical
Method: The surface area exposed to the buffer is about 0.785 sq. cm. One cc aliquots of the buffer solution are taken over a three day period, every 2 hours during business hours of day one, then several times on each of days two and three. […] The same procedure was followed for measurement of the elution of bupivacaine free base and hydrochloride.

| period over which the free base of lidocaine is eluted (liquid component of the putty changed from triethyl citrate to Pluronic L-35 and tocopheryl acetate) | period over which the free base of lidocaine is released (putty-like composition comprising lidocaine free base, calcium stearate and liquid triethyl citrate) | effect of the added material on the elution rate of the anesthetic from the putty | Compound |
| --- | --- | --- | --- |
| eight | three | – | CCN(CC)CC(=O)Nc1c(C)cccc1C [lidocaine free base, lidocaine, reference compound] |
| – | – | retard the elution | CCCCCCCCCCCC(=O)OCC [ethyl laurate] |
| – | – | retard the elution | CCCCCCCCCCCCOC(C)=O [lauryl acetate] |

| Compound | period over which the free base of lidocaine is eluted (liquid component of the putty changed from triethyl citrate to Pluronic L-35 and tocopheryl acetate) | period over which the free base of lidocaine is released (putty-like composition comprising lidocaine free base, calcium stearate and liquid triethyl citrate) | effect of the added material on the elution rate of the anesthetic from the putty |
| --- | --- | --- | --- |
| CC(=O)Oc1c(C)c(C)c2c(c1C)CCC(C)(CCC[C@H](C)CCC[C@H](C)CCCC(C)C)O2 (some centres unmarked) [tocopheryl acetate] | – | – | slow down the elution rate; also recorded: reduces the elution rate; also recorded: retard the elution |
